Test results reported in patent publication US20080181971A1, “Combination Cancer Treatments Comprising Elsamitrucin and Other Agents” (priority 2007, published 2008).
Where two headings read alike, the source gives them in different places.

Legend:
Assay type in all cases: cell-based
[1] = test system: Daudi human lymphoma cell line; experiment: MTT growth inhibition assay, single agents and fixed-ratio combinations with elsamitrucin (Chou-Talalay, CalcuSyn), Daudi; details: Homo sapiens, Daudi
Protocol: (§1) These individual agents and their combinations were evaluated for in vitro activity against the HT29 colon carcinoma, SKMES non-small cell lung carcinoma, and Daudi B-lymphoblastic cell lines. Cell growth in 96-well microculture plates was determined with a semi-automated MTT assay. Efficacies of drug combinations were analyzed according to the methods of Chou and Talalay, utilizing CalcuSyn software. Twenty-one in vitro experiments were conducted to determine the individual and combined growth inhibitory activities of elsamitrucin and the ten selected agents in the three cell lines.
(§2) b. Cell Lines. The human HT29 colon carcinoma, SKMES non-small cell lung carcinoma, and Daudi B-lymphoblastic cell lines were originally obtained from ATCC (American Type Culture Collection). These cell lines have been maintained and stored as frozen stocks. […] The medium for Daudi cells was additionally supplemented with 1 mM sodium pyruvate.
(§3) c. Growth Inhibition Assay. Anti-proliferative activities against the HT29, SKMES, and Daudi cell lines were evaluated in vitro by the MTT assay. Cells (1,500-2,000 cells/well) were seeded in a 96-well microculture plate in 180 pL of medium/well. […] DMSO was present in all wells at a final concentration of 0.1%. […] When the appropriate cell density was attained in the control wells, the plates were centrifuged briefly, and 100 pL of the growth medium was removed. The cell cultures were incubated with 50 μL of MTT reagent (1 mg/mL in Dulbecco's phosphate-buffered saline) for 4 hr at 37° C. The resultant purple formazan precipitate was solubilized with 200 μL of 0.04 N HCl in isopropanol.
(§4) The results of each experiment were stored in Excel format.
(§5) d. Preliminary Experiments: Design and Data Analysis. […] The initial experiments utilized serial three-fold dilutions of the drugs to produce ten test concentrations over a broad concentration range. Based on the initial results, a narrower concentration range was selected, and serial 1:1.5 dilutions were utilized to produce ten test concentrations. Experiments were repeated as needed.
(§6) For assays that utilized lower dilution factors to produce narrower concentration ranges, the results were analyzed with both Prism and CalcuSyn (as described below) to allow comparison of the IC50 and Da, values. The results guided the selection of appropriate concentration ranges and concentration ratios for the combination experiments.
(§7) e. Combination Experiments: Design and Data Analysis. The fixed-ratio design of Chou was used for the combination experiments. For each experiment, the drug solutions were mixed at a ratio that was expected to provide approximately equipotent concentrations, and the mixture was serially diluted with medium containing 1% DMSO to yield 10× stock solutions of the test concentrations. […] Each agent was tested individually and in combination at seven concentrations. The concentration range selected for each assay was designed to bracket the concentrations that produced half-maximal effects (ED50) with each single agent and their mixture. The concentrations used for the single-drug assays were twice as high as their concentrations in the mixture. Each assay was performed in quadruplicate. For each drug combination, the individual agents and their mixture were assayed on the same 96-well plate. The effects of the individual drugs and their combinations were analyzed by the method of Chou and Talalay. The results of each experiment were entered into CalcuSyn (BIOSOFT) for dose-effect analysis.
(§8) where Acontrol and Adrug are the respective absorbances of vehicle control and drug-treated wells in the MIT assay.
(§9) where the slope, m, is related to the sigmoidicity of the dose-effect curve, with m=1, >1, and <1 indicating hyperbolic, sigmoidal, and reverse sigmoidal shapes, respectively.

[2] = test system: SKMES human non-small cell lung carcinoma cell line; experiment: MTT growth inhibition assay, single agents and fixed-ratio combinations with elsamitrucin (Chou-Talalay, CalcuSyn), SKMES; details: for IC50: Homo sapiens
Protocol: as §1, §2, §3, §4, §5, §6, §7, §8, §9

[3] = test system: HT29 human colon carcinoma cell line; experiment: MTT growth inhibition assay, single agents and fixed-ratio combinations with elsamitrucin (Chou-Talalay, CalcuSyn), HT29
Protocol: as §1, §2, §3, §4, §5, §6, §7, §8, §9

[4] = Daudi growth inhibition, second agent alone, one value per plate, Table 8 (Supplement), read-out: Dm Value (95% Confidence Interval), Individually, Second Agent
[5] = Daudi growth inhibition, second agent alone, Table 8, read-out: Dm Value (95% Confidence Interval), Individually, Second Agent
[6] = SPA-05 (Daudi-e01), single agent, dilution 1:3, read-out: Prism IC50
[7] = SPA-08 (Daudi-e02), single agent, dilution 1:1.5, read-out: CalcuSyn Dm
[8] = SPA-08 (Daudi-e02), single agent, dilution 1:1.5, read-out: Prism IC50
[9] = SPA-15 (Daudi-e03), single agent, dilution 1:1.5 (elsamitrucin 1:1.33), read-out: CalcuSyn Dm
[10] = SPA-15 (Daudi-e03), single agent, dilution 1:1.5 (elsamitrucin 1:1.33), read-out: Prism IC50
[11] = average of preliminary single-agent experiments, read-out: Average IC50, Dm value
[12] = read-out: approximate Dm values for the second drugs as single agents
[13] = SKMES growth inhibition, second agent alone, one value per plate (Experiment ID), read-out: Dm Value (95% Confidence Interval), Individually, Second Agent
[14] = SKMES, single agent on the same plate as the combination, read-out: Dm Value, Individually, Second Agent
[15] = SPA-02 (SKMES-e22), single agent, dilution 1:3, read-out: Prism IC50
[16] = SPA-03 (SKMES-e23), single agent, dilution 1:1.5, read-out: CalcuSyn Dm
[17] = SPA-03 (SKMES-e23), single agent, dilution 1:1.5, read-out: Prism IC50
[18] = SPA-09 (SKMES-e25), single agent, dilution 1:1.5, read-out: CalcuSyn Dm
[19] = SPA-09 (SKMES-e25), single agent, dilution 1:1.5, read-out: Prism IC50
[20] = average of preliminary single-agent experiments, SKMES, read-out: Average IC50, Dm value
[21] = HT29, single agent on the same plate as the combination, read-out: Dm Value, Individually, Second Agent
[22] = Homo sapiens, HT-29, SPA-01 (HT29-e21), single agent, dilution 1:3, read-out: Prism IC50
[23] = Homo sapiens, HT-29, SPA-04 (HT29-e22), single agent, dilution 1:1.5, read-out: CalcuSyn Dm
[24] = Homo sapiens, HT-29, SPA-04 (HT29-e22), single agent, dilution 1:1.5, read-out: Prism IC50
[25] = Homo sapiens, HT-29, SPA-10 (HT29-e24), single agent, dilution 1:1.5, read-out: CalcuSyn Dm
[26] = Homo sapiens, HT-29, SPA-10 (HT29-e24), single agent, dilution 1:1.5, read-out: Prism IC50
[27] = Homo sapiens, HT-29, average of preliminary single-agent experiments, HT29, read-out: Average IC50, Dm value
[28] = Homo sapiens, HT-29, HT29, single agent on the same plate as the combination, read-out: Dm Value, Individually, Second Agent

| Structure (SMILES) | IC50 [1, 4] [nM] | IC50 [1, 5] [nM] | IC50 [1, 6] [nM] | IC50 [1, 7] [nM] | IC50 [1, 8] [nM] | IC50 [1, 11] [nM] | IC50 [1, 12] [nM] | IC50 [2, 13] [nM] | IC50 [2, 14] [nM] | IC50 [2, 15] [nM] | IC50 [2, 16] [nM] | IC50 [2, 17] [nM] | IC50 [2, 18] [nM] | IC50 [2, 19] [nM] | IC50 [2, 20] [nM] | IC50 [3, 22] [nM] | IC50 [3, 23] [nM] | IC50 [3, 24] [nM] | IC50 [3, 27] [nM] | IC50 [3, 28] [nM] | also measured |
| --- | --- | --- | --- | --- | --- | --- | --- | --- | --- | --- | --- | --- | --- | --- | --- | --- | --- | --- | --- | --- | --- |
| CC(C)C[C@H](NC(=O)[C@H](Cc1ccccc1)NC(=O)c1cnccn1)B(O)O [Bortezomib, bortezomib] | 3.9 | 3.9 | 3.7 | 3.4 | 4 | 4 | ~3.9 | 24 | 16 |  | 21.5 | 19.5 |  |  | 21 | 12 | 29 | 23 | 21 | 17.8 |  |
| CC[C@@]1(O)C(=O)OCc2c1cc1n(c2=O)Cc2cc3ccccc3nc2-1 [Camptothecin, camptothecin] | 9.3 | 9.3 | 8.5 | 11 | 9.5 | 10 | ~9.3 | 8 | 8 | 6 | 11 | 11 |  |  | 9 | 16 | 26 | 23 | 153 |  | increase of Dm in the combination ([2]; SKMES, in combination with elsamitrucin versus single agent): less than 1.5 fold; IC50 [3, 25]: 148 nM; IC50 [3, 26]: 550 nM |
| O=NN(CCCl)C(=O)NCCCl [Carmustine, carmustine] |  | 42000 |  | 25000 | 28000 | 24900 | ~42000 | 69800 | 69800 | 1440 |  |  | ~96000 | ~78000 |  | > 10000 | 60000 | 72000 | 66000 |  | IC50 [1, 9]: 25800 nM; IC50 [1, 10]: 20800 nM; IC50 [3, 21]: 128000 nM |
| COc1cccc2c1C(=O)c1c(O)c3c(c(O)c1C2=O)C[C@@](O)(C(=O)CO)C[C@@H]3O[C@H]1C[C@H](N)[C@H](O)[C@H](C)O1 [Doxorubicin, doxorubicin] | 9 | 9 | ~1 | ~33 | ~9.5 | 5 | ~9 | 83 | 56 | 7 | ~200 | ~50 | 21 | 23 | 17 | 40 | 57 | 29 | 42 |  | IC50 [1, 9]: 5 nM; IC50 [1, 10]: 5 nM; IC50 [3, 21]: 48 nM |
| CN(Cc1cnc2nc(N)nc(N)c2n1)c1ccc(C(=O)N[C@@H](CCC(=O)O)C(=O)O)cc1 [Methotrexate, methotrexate] | 45 | 45 | ~20 | 50 | 49 | 50 | ~45 | 12 | 8.2 | ~0.6 |  |  | 9.5 | 8.5 | 10 | 25.4 | 23 | 18 | 22 | 22 | IC50 ([2]; SPA-14 (SKMES-e27), single agent, dilution 1:1.5 (carmustine also 1:2, r12), read-out: CalcuSyn Dm): 10.7 nM; IC50 ([2]; SPA-14 (SKMES-e27), single agent, dilution 1:1.5 (carmustine also 1:2, r12), read-out: Prism IC50): 10.4 nM |

The next lines start with results.

| IC50 [1, 4] [nM] | IC50 [1, 5] [nM] | IC50 [1, 6] [nM] | IC50 [1, 7] [nM] | IC50 [1, 8] [nM] | IC50 [1, 11] [nM] | IC50 [1, 12] [nM] | IC50 [2, 13] [nM] | IC50 [2, 14] [nM] | IC50 [2, 15] [nM] | IC50 [2, 16] [nM] | IC50 [2, 17] [nM] | IC50 [2, 18] [nM] | IC50 [2, 19] [nM] | IC50 [2, 20] [nM] | IC50 [3, 22] [nM] | IC50 [3, 23] [nM] | IC50 [3, 24] [nM] | IC50 [3, 27] [nM] | IC50 [3, 28] [nM] | Structure (SMILES) | also measured |
| --- | --- | --- | --- | --- | --- | --- | --- | --- | --- | --- | --- | --- | --- | --- | --- | --- | --- | --- | --- | --- | --- |
| 11700 | 11700 | ~9200 | 11100 | 12700 | 12200 | ~11700 | 4350 | 4350 | 438 | 5200 | ~3300 | 5580 | 3130 | 3590 | ~3300 | 134 | 280 | 2040 |  | O=c1[nH]cc(F)c(=O)[nH]1 [5-Fluorouracil, 5-fluorouracil] | IC50 [1, 9]: 13200 nM; IC50 [1, 10]: 11900 nM; change of Dm in the mixture versus single agent ([3]; HT29): increased only slightly; IC50 [3, 21]: 786 nM; IC50 [3, 25]: 4200 nM; IC50 [3, 26]: 1650 nM |
| 47 | 47 | 20.2 | 23 | 31 | 25 | ~47 | 237 | 237 | 199 | 317 | 287 |  |  | 268 | ~900 | 766 | 698 | 732 | 710 | COc1cc([C@@H]2c3cc4c(cc3[C@@H](O[C@@H]3O[C@@H]5CO[C@@H](C)O[C@H]5[C@H](O)[C@H]3O)[C@H]3COC(=O)[C@H]23)OCO4)cc(OC)c1O [Etoposide, etoposide] |  |
| 1.2 | 1.2 | 0.6 | 1.3 | 1.4 | 1 | ~1.2 | 1.8 | 2.8 | 1.5 | 1.8 | 2.5 |  |  | 2 | 4.6 |  | 10 | 5 | 4 | Nc1ccn([C@@H]2O[C@H](CO)[C@@H](O)C2(F)F)c(=O)n1 [Gemcitabine, gemcitabine] | IC50 [3, 25]: 6 nM; IC50 [3, 26]: 4 nM |
